Measurements taken from patent US9388419B2 (The Regents of the University of Colorado, a body corporate, priority 2009, dated 2016).
Like-named read-outs stand apart in the source and are kept apart here.

Columns and labels:
E. coli K12 = assay type: cell-based, Escherichia coli; conditions: E. coli K12+pSMART-LC-Kan-cynTS vs E. coli K12, M9 minimal media
Method: Overnight cultures of strains were grown in 5 ml LB (with antibiotic where appropriate) at 37° C. in a shaking incubator. A 1 v/v % was used to inoculate 10 mL of M9 minimal media. After the cells reached mid-exponential phase, the culture was diluted to an OD600 of 0.200. The cells were further diluted 1:20 and a 10 ul aliquot was used to inoculate each well (˜10^4 cells per well). […] The MIC endpoint is the lowest concentration of compound at which there was no visible growth.

E. coli = assay type: cell-based, Escherichia coli; conditions: anaerobic; strain BX_00319.0: BW25113 wild type + pK223-aroH; M9 + Amp 100 μg/mL + 1 mM IPTG
Method: (§1) For MIC evaluations, the final results are expressed in chemical agent concentrations determined by analysis of the stock solution by HPLC (i.e., see Subsection Mb).
(§2) The minimum inhibitory concentration (MIC) was determined anaerobically in a 96 well-plate format. […] Media supplements were added according to levels reported in the Supplements Table, where specified. Overnight cultures of strains were grown in triplicate in 5 mL LB (with antibiotic where appropriate). A 1% (v/v) inoculum was introduced into a 5 ml culture of M9 minimal media.

B. subtilis = experiment: MIC protocol B. subtilis aerobic (Common Methods, M9 media + glutamate, 24 hours); assay type: cell-based, Bacillus subtilis; conditions: strain BSX_0003.0 (pWH1520, control), M9 + glu + trp + 1 mM Xylose
Method: as §1
as §2, with “aerobically” for “anaerobically”, “Table” for “Table,”, “media+glutamate.” for “media.”

[1] = tested on: Yeast strains (S288C background); assay type: cell-based, Saccharomyces cerevisiae
Method: The minimum inhibitory concentration (MIC) was determined aerobically in a 96 well-plate format. […] Media supplements were added according to levels reported in the Supplements Table, where specified. Overnight cultures of strains were grown in triplicate in 5 mL SD media with vitamins (Methods in Enzymology vol. 350, page 17 (2002)). A 1% (v/v) inoculum was introduced into a 5 ml culture of SD minimal media without vitamins. After the cells reached mid-exponential phase, the culture was diluted to an OD600 of 0.200. The cells were further diluted 1:5 and a 10 μL aliquot was used to inoculate each well of a 96 well plate (˜10^4 cells per well) to total volume of 100 uL. […] Plates were incubated for 72 hours at 30 C.

[2] = Reactive extraction of 3-HP from fermentation broth with tertiary amine and co-solvents, single pass extraction efficiency; assay type: physicochemical
Method: Calcium chloride at 1 M was added as a flocculent to reach a final concentration of about 8.2 g/L. Thereafter the pH was adjusted to a pH of approximately 2.0 using sulfuric acid. Thereafter a volume of this modified fermentation broth was centrifuged at approximately 3,200 g for 5 minutes to yield a clarified broth and a pellet, which was discarded.
Portions of the clarified broth were then subjected to reactive extraction by mixing with a tertiary amine non-polar phase comprising various co-solvents.

[3] = tested on: wild-type E. coli BW25113; experiment: Toleragram / OD600 / doublings at 3HP 0-50 g/L, E. coli aerobic; assay type: cell-based, Escherichia coli; conditions: control E. coli, aerobic condition, FIG. 15B
Method: Overnight cultures of wild-type E. coli BW25113 were grown in triplicate in 5 mL standard LB medium. 100 uL of overnight cultures were used to inoculate triplicate 5 mL samples of M9 minimal medium+3HP, containing 47.7 mM Na2HPO4, 22 mM KH2PO4, 8.6 mM NaCl, 18.7 mM NH4Cl, 2 mM MgSO4, 0.1 mM CaCl2, and 0.4% glucose, with 3HP concentrations ranging from 0-50 g/L. Starting OD600 ranged from 0.02-0.08. Cultures were incubated at 37 C for about 24 hours, and OD600 was recorded every 1-2 hours for the first 8 hours with a final OD600 recorded at about 24 hours. Maximum specific growth rates (μmax) were calculated by determining the optimal fit of exponential trend lines with OD data for the evaluation period. Specific changes in OD600 over approximately 24 hours (Δ24hrOD600) were calculated as the difference in t=24 hr and t=0 optical density, Δ24hrOD600=(ODt=24)−(ODt=0). Specific number of doublings (Nd) were calculated by solving for N in the equation 2^N=(ODt=24)/(ODt=0).

[4] = 3-HP preparation (TCI America): behaviour of samples neutralized to pH 7.0; assay type: physicochemical; conditions: 3-HP from TCI America, ether extracted, neutralized with 10 M NaOH to pH 7.0
Description: (§3) 3-HP was obtained from TCI America (Portland, Oreg.). Significant acrylic acid and 2-oxydipropionic contamination was observed via HPLC analysis. Samples were subsequently treated by diethyl ether extraction to remove acrylic acid and a portion of the 2-oxydipropionic contaminants. Samples were then neutralized with 10 M NaOH to a final pH of 7.0. […] The working stock solution was used for the selection and MIC evaluations in this example.
as §3, with “selection, growth rates” for “selection”

[5] = Tripentylamine with Butanol (2)
[6] = Tripentylamine with Methyl ethyl ketone (4)
[7] = Tripentylamine with Methyl tert-butyl ether (5)
[8] = Tripentylamine with p-Xylene (3)

O=C(O)CCO [3-HP, 3-hydroxypropionic acid]
improvement in the MIC of 3-HP with cynTS plasmid (E. coli K12): over sixty percent | % Increase Over Control (E. coli): 33% | Avg 24 hr ΔOD600 (B. subtilis): 0.00 | % Increase Over Control ([1]; S288C, SC media, no supplement, versus SD control, aerobic): 33% | % Increase Over Control ([1]; strain YX-022 (pyes2.1-Aro3 pRS425-ILV6) versus control, aerobic): 50% | % Increase Over Control ([1]; strain YX-CJR-010 (pyes2.1-Thr1) versus YX-CJR-001, aerobic): 50% | % Increase Over Control ([1]; strain YX-CJR-014 (pyes2.1-arg2) versus YX-CJR-001, aerobic): 50% | % Increase Over Control ([1]; strain YX-CJR-017 (pyes2.1-Aro7) versus YX-CJR-001, aerobic): 75% | 3-HP mass extractant ([2]; Alamine 336 with Butanol (1)): 0.59 G | 3-HP mass raffinate ([2]; Alamine 336 with Butanol (1)): 0.38 G | % 3-HP extracted ([2]; Alamine 336 with Butanol (1)): 61% | % 3-HP raffinate ([2]; Alamine 336 with Butanol (1)): 39% | Total 3HP extracted ([2]; Alamine 336 with Butanol (1)): 0.59 G | 3-HP mass raffinate [2, 5]: 0.81 G | % 3-HP extracted [2, 5]: 58% | % 3-HP raffinate [2, 5]: 42% | 3-HP mass raffinate [2, 6]: 0.63 G | % 3-HP extracted [2, 6]: 67% | % 3-HP raffinate [2, 6]: 33% | 3-HP mass extractant [2, 7]: 0.73 G | % 3-HP extracted [2, 7]: 38% | % 3-HP raffinate [2, 7]: 62% | Total 3HP extracted [2, 7]: 0.73 G | 3-HP mass extractant [2, 8]: 0.46 G | % 3-HP extracted [2, 8]: 24% | % 3-HP raffinate [2, 8]: 76% | Total 3HP extracted [2, 8]: 0.46 G | 3-HP concentration at which a dramatic reduction in cell density (OD600) at 24 hours starts [3]: ≥ 30 g/L | concentration above which considerable 3-HP polymerization was observed at neutral pH [4]: > 35 g/L | concentration above which considerable insoluble matter was observed at neutral pH [4]: > 35 g/L
